Read-outs that look alike come from different tables or passages of the source. Values belong to the compound of their own block, whether it stands above or below them.
Key:
[1] = Oxidation of compound 1 to 2 in PBS, HPLC analysis; format: physicochemical
Method: To mimic cellular addition, 1 was incubated in PBS with limiting N-acetylcysteine and the products were analyzed by HPLC (FIG. 3C). The limiting N-acetylcysteine was necessary due to the formation of multiple addition products, since addition of a thiol to the aromatic ring makes further oxidation and addition easier. Compound 1 was converted to 2 in the absence of exogenous oxidant at a rate of 0.011±0.002 min^−1 (FIG. 3D, grey line), which leads to approximately 50% conversion in one hour. ROS-induced activation of 1 was then assessed. In the presence of 10 mM H2O2, a ten-fold excess, the rate of conversion was enhanced by […] to 0.6±0.1 min^−1. Once 2 was formed, N-acetylcysteine was added and NAC-2 was rapidly produced (FIG. 3C, black line) as confirmed by FTMS (FIG. 3E).

MA9.3RAS AML cells = assay: MTT cytotoxicity assay in MA9.3RAS AML cells; format: cell-based, human
Method: (§1) Cells were seeded at a density of 4×10^4 cells/well in a 96-well plate and incubated at 37° C. overnight. Then cells were treated for 48 hours with indicated concentrations of freshly dissolved compounds. The plates were centrifuged at 1500×g for 5 minutes at 4° C. to pellet the cells and the medium containing compounds was discarded; fresh medium containing 20 μL of MTT (5 mg/mL) was added to each well and incubated for an additional 4 h. The medium was removed. After adding 200 μL of DMSO to each well, the optical densities at 575 nm were determined. Cytotoxicity data are expressed as IC50 values obtained from the fit to a four parameter sigmoid using the graphing software KaleidaGraph (Synergy Software). All R^2 values were greater than 0.98 and standard errors of the three replicates were less than 20%.
Structural components within 1 were then probed to determine effect on potency. The goal was to obtain activity that matched the two natural products, PTL and PLG, which show efficacy in tumor xenografts in mice. As a model system cytotoxicity of synthesized agents in the MA9.3RAS AML cell line was examined. These cells are transformed CD34^+ human blood stem cells engineered to express both an MLL-AF9 fusion protein and the common oncogene NrasG12D. Culturing was accomplished as previously described by Wunderlich, et al., Leukemia 24(10):1785-88 (2010). The molecular signatures associated with these cells closely mimic those identified in primary AML patient samples and the MLL-fusion is associated with poor survival. Cytotoxicity studies were performed in triplicates using an MTT cell proliferation assay. All MTT assays were repeated twice.

[2] = tested on: CD34+ normal human blood stem cells vs MA9.3RAS AML cells; assay: Selectivity factor: ratio of IC50 of normal cells over IC50 of AML cells; format: cell-based; details: for selectivity factor (ratio of IC50 of normal cells over IC50 of AML cells): CD34+ normal human blood stem cells / MA9.3RAS AML cells
Text: (§2) The selectivity of select compounds was examined by treatment of primary CD34^+ normal human blood stem cells. These are untransformed and are genetically similar to MA9.3RAS cells except they lack the MLL-AF9 oncogene and active Nras^G12D oncogene. It is essential that reactive agents be selective since off-target reactivity is of great concern. In anti-cancer compounds, a selectivity factor, which in this instance is the ratio between the IC50 of normal cells over the IC50 of the AML cells, of one log unit is desired. Compound 1 is marginally selective with a ratio of 2.0±0.2. […] Conversion of the aniline to an alkyl amine led to improved selectivity.

[3] = tested on: CD34+ selected human umbilical cord blood cells (UCB); assay: MTT cytotoxicity assay in CD34+ selected umbilical cord blood cells (normal blood stem cells); format: cell-based; details: for IC50: CD34+ selected human umbilical cord blood cells, 48 hours treatment, MTT, read-out: IC50 against UCB
Method: as §1, §2

[4] = Oxidation of compound 14, HPLC analysis; format: physicochemical
Method: These products were produced via both spontaneous and hydrogen-peroxide induced oxidation but not under an argon atmosphere (FIG. 4C right hand side). […] Importantly, addition of one molar equivalent hydrogen peroxide led to a near instantaneous conversion to the oxidized products. Using the lower limit of t1/2 less than 1 min leads to a large rate enhancement. Initially, the two products were isolated and a high-resolution MS was obtained on both. […] Several tautomers of 14-ox are possible (see FIG. 5A).

AML cells = assay: Cellular ROS level by DCF fluorescence assay; format: cell-based
Method: Though it is widely accepted that bulk AML cells have elevated concentrations of reactive oxygen, it was desirable to ensure that the instant models had higher levels of ROS than healthy cells. CD34+ blood stem cells were harvested from three donors. Cells were counted, incubated with 2,7-dihydrodichlorofluorescein (DCF) diacetate, and their respective fluorescence compared after 30 min (FIG. 7). After deacylation, DCF is oxidized by a broad spectrum of ROS species and oxidases. Thus is a marker of general ROS and oxidation within cells. The three CD34+ selected UCB cell populations each derived from different healthy donors referred as #1 through #3 (FIG. 7) had fluorescence intensity of 0.69±0.03 (p<0.002), 0.60±0.03 (p<10^−6), 0.54±0.02 (p<10^−6) compared to 1.00±0.02 in the AML cell model.
In order for 14 to be ROS-activatable, it needs to enter a cell and react with hydrogen peroxide, thereby lowering a cell's total ROS level as measured by DCF fluorescence (FIG. 8A). It should be noted that because 14 is highly lethal, concentrations ten-fold higher than the IC50 are required to lower a cell's ROS level. […] Similar experiments lacking addition of 14 show statistically significant increases in fluorescence intensities (p<0.001 for all time points while pretreated data set was not statistically significant from each other) with the endpoint having an intensity of 5.02±0.08.

KEAP1 = assay: Western blot against KEAP1 normalized to beta-actin; format: cell-based; details: AML cells
Method: Finally, reactivity of 14 in a cell was examined (FIG. 8B). To accomplish this, western blot against KEAP1, normalized to beta-actin was performed. KEAP1 is a signaling molecule that inhibits NRF2^25, the transcription factor that regulates anti-oxidant concentrations in cells.

[5] = tested on: UT (healthy untransformed cells); assay: IC50 panel, healthy untransformed cells; format: cell-based
Text: (§3) Selectivity of compound 14 was examined by measuring IC50 against a variety of cell types, including AML cells obtained from individuals as well as common cell lines and healthy untransformed cells.

[6] = tested on: A_MA9 (Individual 1 transformed with MLL-AF9 fusion); assay: IC50 panel, A_MA9; format: cell-based
Text: as §3

[7] = tested on: A_MA9 + FLT3 (Individual 1 transformed with MLL-AF9 and FLT3-ITD); assay: IC50 panel, A_MA9 + FLT3; format: cell-based
Text: as §3

[8] = tested on: A_MA9 + Nras (Individual 1 transformed with MLL-AF9 and NrasG12D); assay: IC50 panel, A_MA9 + Nras; format: cell-based
Text: as §3

[9] = tested on: B_MA9 (Individual 2 transformed with MLL-AF9); assay: IC50 panel, B_MA9; format: cell-based
Text: as §3

[10] = tested on: B_MA9 + FLT3 (Individual 2 transformed with MLL-AF9 and FLT3-ITD); assay: IC50 panel, B_MA9 + FLT3; format: cell-based
Text: as §3

[11] = tested on: B_MA9 + Nras (Individual 2 transformed with MLL-AF9 and NrasG12D); assay: IC50 panel, B_MA9 + Nras; format: cell-based
Text: as §3

[12] = tested on: HL60 (common AML cell line); assay: IC50 panel, HL60; format: cell-based; details: Homo sapiens, HL-60
Text: as §3

[13] = tested on: MOLM13 (common AML cell line); assay: IC50 panel, MOLM13; format: cell-based; details: Homo sapiens, MOLM-13
Text: as §3

[14] = tested on: Kasumi1 (common AML cell line); assay: IC50 panel, Kasumi1; format: cell-based; details: Homo sapiens, Kasumi 1
Text: as §3

[15] = Homo sapiens, MA9.3RAS AML cell line, MTT cell proliferation assay (Table 2 and text), read-out: IC50
[16] = Homo sapiens, MA9.3RAS, MA9.3 AML cells, MTT assay (Table 3), read-out: IC50

rate of conversion of 1 to 2 ([1]; PBS, absence of exogenous oxidant): 0.011 ± 0.002 min⁻¹
conversion of 1 to 2 in one hour ([1]; absence of exogenous oxidant): approximately 50%
rate of conversion of 1 to 2 ([1]; presence of 10 mM H2O2, ten-fold excess): 0.6 ± 0.1 min⁻¹
rate of conversion of 1 into 2 ([1]; with hydrogen peroxide (FIG. 3D legend)): 0.6 min⁻¹
Compound: CN(CC(=O)Nc1cc(O)ccc1O)c1ccccc1 [Compound 1]

Compound: CN(CC(=O)NC1=CC(=O)C=CC1=O)c1ccccc1 [Compound 2]
IC50 (MA9.3RAS AML cells; [15]): 21 ± 4 µM

Compound: COc1ccc(OC)c(NC(=O)CN(C)c2ccccc2)c1 [Compound 3]
IC50 (MA9.3RAS AML cells; [15]): > 100 µM

Compound: CN(CC(=O)Nc1ccccc1O)c1ccccc1 [Compound 4]
IC50 (MA9.3RAS AML cells; [15]): > 100 µM

Compound: CN(CC(=O)Nc1cccc(O)c1)c1ccccc1 [Compound 5]
IC50 (MA9.3RAS AML cells; [15]): > 100 µM

Compound: CC(=O)Nc1cc(O)ccc1O [Compound 6]
IC50 (MA9.3RAS AML cells; [15]): 35 ± 5 µM
selectivity factor (ratio of IC50 of normal cells over IC50 of AML cells) [2]: Neither compound 6 nor compound 7 were selective

Compound: NC1=CC(=O)C=CC1=O [Compound 7]
IC50 (MA9.3RAS AML cells; [15]): 16 ± 2 µM
selectivity factor (ratio of IC50 of normal cells over IC50 of AML cells) [2]: Neither compound 6 nor compound 7 were selective

Compound: O=C(CO)Nc1cc(O)ccc1O [Compound 8]
IC50 (MA9.3RAS AML cells; [15]): 12 ± 3 µM

Compound: O=C(CNc1ccccc1)Nc1cc(O)ccc1O [Compound 9]
IC50 (MA9.3RAS AML cells; [15]): 13 ± 2 µM

Compound: O=C(COc1ccccc1)Nc1cc(O)ccc1O [Compound 10]
selectivity factor (ratio of IC50 of normal cells over IC50 of AML cells) [2]: limited selectivity

Compound: O=C(CSc1ccccc1)Nc1cc(O)ccc1O [Compound 11]
selectivity factor (ratio of IC50 of normal cells over IC50 of AML cells) [2]: limited selectivity

Compound: CCCN(C)CC(=O)Nc1cc(O)ccc1O [Compound 12]
IC50 (MA9.3RAS AML cells; [15]): 18 ± 2 µM

activation by hydrogen peroxide [4]: more than 150 fold
time for complete conversion of 14 ([4]; hydrogen peroxide (FIG. 4C legend)): less than 0.1 hours
t1/2 of oxidation ([4]; normal atmosphere, pseudo-zero order kinetics): 2.58 ± 0.217 h
t1/2 of oxidation ([4]; one molar equivalent hydrogen peroxide): less than 1 min
fraction of 14 converted to its oxidation product ([4]; two hours under argon atmosphere): 4±3%
IC50 [6]: 4 ± 0.7 µM
IC50 [7]: 1.8 ± 0.07 µM
IC50 [8]: 2.3 ± 0.08 µM
IC50 [9]: 3.7 ± 0.1 µM
IC50 [10]: 1.6 ± 0.1 µM
IC50 [11]: 2.5 ± 0.03 µM
IC50 [12]: 4 µM
IC50 [13]: 6 ± 1 µM
IC50 [14]: 19 ± 3 µM
Compound: O=C(CNC1CCCCC1)Nc1cc(O)ccc1O [Compound 14, 2-(cyclohexylamino)-N-(2,5-dihydroxyphenyl)acetamide]
viability of AML cells, in words (MA9.3RAS AML cells; FIG. 6B): eradicated
IC50 (MA9.3RAS AML cells; [15]): 2 µM
IC50 [3]: 20 ± 2 µM
viability of normal blood stem cells, in words ([3]; concentration that eradicated AML cells, FIG. 6B): did not affect viability
selectivity ([2]; AML cells vs normal blood stem cells): 11 fold
cellular ROS levels (DCF fluorescence), in words (AML cells; 20 μM, AML cells): time dependent loss in cellular ROS levels
DCF fluorescence intensity at endpoint (AML cells; AML cells treated with 14, end of time course, without 14 5.02±0.08): 4.31±0.08
DCF fluorescence intensity at addition of 14 (AML cells; AML cells, start of time course): 1.06±0.13
KEAP1 level, in words (KEAP1; 2 μM): statistically significant reduction in KEAP1
relative concentration of KEAP1 (KEAP1 to ACTB) (KEAP1; after 24 hrs): 0.65±0.09
IC50 [5]: 22 ± 2 µM

Compound: Nc1ccc(O)c(NC(=O)CNC2CCCCC2)c1 [Compound 16, N-(5-amino-2-hydroxyphenyl)-2-(cyclohexylamino)acetamide]
IC50 (MA9.3RAS AML cells; Homo sapiens, MA9.3RAS, 48 hours treatment, MTT, read-out: IC50 against MA9.3RAS AML cells): 3 ± 1 µM
IC50 (MA9.3RAS AML cells; [16]): 5 ± 2 µM
IC50 [3]: 55 ± 4 µM

Compound: O=C(CNC1CCCCC1)Nc1cc([N+](=O)[O-])ccc1O [Compound 17]
IC50 (MA9.3RAS AML cells; [16]): 22 ± 7 µM

Compound: C[C@@H](NC1CCCCC1)C(=O)Nc1cc(O)ccc1O [Compound 18]
IC50 (MA9.3RAS AML cells; [16]): 104 ± 2 µM

Compound: O=C(Nc1cc(O)ccc1O)C(NC1CCCCC1)C1CCCCC1 (stereo not shown) [Compound 19]
IC50 (MA9.3RAS AML cells; [16]): 107 ± 1 µM

Compound: COc1cc(/C=C/C(=O)N2CCC=CC2=O)cc(OC)c1OC [PLG, piperlongumine, reference compound]
IC50 (MA9.3RAS AML cells; [15]): 2 ± 1 µM
selectivity factor (ratio of IC50 of normal cells over IC50 of AML cells) [2]: 3.7±1

Compound: parthenolide [PTL, reference compound]
IC50 (MA9.3RAS AML cells; MA9.3RAS AML cell line, MTT cell proliferation assay (Table 2 and text), read-out: IC50): 3 ± 1 µM
selectivity factor (ratio of IC50 of normal cells over IC50 of AML cells) [2]: 2.1±0.4
